Reference: PubChem BioAssay AID1918930 (Molecular Pharmacology Branch, DTP, NCI, 2023)

Test system: 233499-124-R-J3-PDC complex spheroid viability, % test/control
Assay: Anticancer human tumor 233499-124-R-J3-PDC patient-derived colon adenocarcinoma cell line growth inhibition
Conditions: second compound 1 µM; first compound 0.001 µM; active compounds read low
Summary of the method: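 Drug combinations with the LSD1 inhibitor iadademstat tested on tumor cells co-cultured as spheroids with endothelial cells and mesenchymal stem cells. Concentrations descended in half-log increments from clinical Cmax or 10 microM.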
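Further: spheroids exposed to agents for one week before readout.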

Structure (SMILES)	viability, T/C
CC(C)CC(NC(=O)CNC(=O)c1cc(Cl)ccc1Cl)B1OC(=O)CC(CC(=O)O)(C(=O)O)O1 (centres undefined) + NC1CCC(NC2CC2c2ccccc2)CC1	78.1%
CC[C@@]1(O)C(=O)OCc2c1cc1n(c2=O)Cc2cc3c(CN(C)C)c(O)ccc3nc2-1 + NC1CC1c1ccc(-c2cccc(O)c2)cc1	94%

Same assay, conditions: second compound 1 µM; first compound 0.00316 µM; active compounds read low

Structure (SMILES)	viability, T/C
CC(C)CC(NC(=O)CNC(=O)c1cc(Cl)ccc1Cl)B1OC(=O)CC(CC(=O)O)(C(=O)O)O1 (centres undefined) + NC1CCC(NC2CC2c2ccccc2)CC1	75.8%
CC1COCCN1c1cc(-c2ccnn2C)c2ccnc(-c3ccn[nH]3)c2n1 (centres undefined) + NC1CC1c1ccc(-c2cccc(O)c2)cc1	64.1%
CC[C@@]1(O)C(=O)OCc2c1cc1n(c2=O)Cc2cc3c(CN(C)C)c(O)ccc3nc2-1 + NC1CC1c1ccc(-c2cccc(O)c2)cc1	62.1%

Same assay, conditions: second compound 1 µM; first compound 0.01 µM; active compounds read low

Structure (SMILES)	viability, T/C
CC(C)CC(NC(=O)CNC(=O)c1cc(Cl)ccc1Cl)B1OC(=O)CC(CC(=O)O)(C(=O)O)O1 (centres undefined) + NC1CCC(NC2CC2c2ccccc2)CC1	7.01%
CC1COCCN1c1cc(-c2ccnn2C)c2ccnc(-c3ccn[nH]3)c2n1 (centres undefined) + NC1CC1c1ccc(-c2cccc(O)c2)cc1	59.6%
CC[C@@]1(O)C(=O)OCc2c1cc1n(c2=O)Cc2cc3c(CN(C)C)c(O)ccc3nc2-1 + NC1CC1c1ccc(-c2cccc(O)c2)cc1	67.9%

Same assay, conditions: second compound 1 µM; first compound 0.0316 µM; active compounds read low

Structure (SMILES)	viability, T/C
CC(C)c1c(-c2ccccc2)nc2c(C#N)c[nH]n2c1=O + NC1CC1c1ccc(-c2cccc(O)c2)cc1	86.8%
CC1(C)CCC(CN2CCN(c3ccc(C(=O)NS(=O)(=O)c4ccc(NCC5CCOCC5)c([N+](=O)[O-])c4)c(Oc4cnc5[nH]ccc5c4)c3)CC2)=C(c2ccc(Cl)cc2)C1 + NC1CC1c1ccc(-c2cccc(O)c2)cc1	88.7%
CC(C)CC(NC(=O)CNC(=O)c1cc(Cl)ccc1Cl)B1OC(=O)CC(CC(=O)O)(C(=O)O)O1 (centres undefined) + NC1CCC(NC2CC2c2ccccc2)CC1	4.17%
CC1COCCN1c1cc(-c2ccnn2C)c2ccnc(-c3ccn[nH]3)c2n1 (centres undefined) + NC1CC1c1ccc(-c2cccc(O)c2)cc1	37.4%
CC[C@@]1(O)C(=O)OCc2c1cc1n(c2=O)Cc2cc3c(CN(C)C)c(O)ccc3nc2-1 + NC1CC1c1ccc(-c2cccc(O)c2)cc1	57.3%

Same assay, conditions: second compound 1 µM; first compound 0.1 µM; active compounds read low

Structure (SMILES)	viability, T/C
CC(C)c1c(-c2ccccc2)nc2c(C#N)c[nH]n2c1=O + NC1CC1c1ccc(-c2cccc(O)c2)cc1	93.6%
CC1(C)CCC(CN2CCN(c3ccc(C(=O)NS(=O)(=O)c4ccc(NCC5CCOCC5)c([N+](=O)[O-])c4)c(Oc4cnc5[nH]ccc5c4)c3)CC2)=C(c2ccc(Cl)cc2)C1 + NC1CC1c1ccc(-c2cccc(O)c2)cc1	92%
CC(C)CC(NC(=O)CNC(=O)c1cc(Cl)ccc1Cl)B1OC(=O)CC(CC(=O)O)(C(=O)O)O1 (centres undefined) + NC1CCC(NC2CC2c2ccccc2)CC1	2.6%
CC1COCCN1c1cc(-c2ccnn2C)c2ccnc(-c3ccn[nH]3)c2n1 (centres undefined) + NC1CC1c1ccc(-c2cccc(O)c2)cc1	40.1%
CC[C@@]1(O)C(=O)OCc2c1cc1n(c2=O)Cc2cc3c(CN(C)C)c(O)ccc3nc2-1 + NC1CC1c1ccc(-c2cccc(O)c2)cc1	104%

Same assay, conditions: second compound 1 µM; first compound 0.316 µM; active compounds read low

Structure (SMILES)	viability, T/C
CC(C)c1c(-c2ccccc2)nc2c(C#N)c[nH]n2c1=O + NC1CC1c1ccc(-c2cccc(O)c2)cc1	95.1%
CC1(C)CCC(CN2CCN(c3ccc(C(=O)NS(=O)(=O)c4ccc(NCC5CCOCC5)c([N+](=O)[O-])c4)c(Oc4cnc5[nH]ccc5c4)c3)CC2)=C(c2ccc(Cl)cc2)C1 + NC1CC1c1ccc(-c2cccc(O)c2)cc1	97.8%
CC1COCCN1c1cc(-c2ccnn2C)c2ccnc(-c3ccn[nH]3)c2n1 (centres undefined) + NC1CC1c1ccc(-c2cccc(O)c2)cc1	39.1%

Same assay, conditions: second compound 1 µM; first compound 1 µM; active compounds read low

Structure (SMILES)	viability, T/C
CC(C)c1c(-c2ccccc2)nc2c(C#N)c[nH]n2c1=O + NC1CC1c1ccc(-c2cccc(O)c2)cc1	92.8%
CC1(C)CCC(CN2CCN(c3ccc(C(=O)NS(=O)(=O)c4ccc(NCC5CCOCC5)c([N+](=O)[O-])c4)c(Oc4cnc5[nH]ccc5c4)c3)CC2)=C(c2ccc(Cl)cc2)C1 + NC1CC1c1ccc(-c2cccc(O)c2)cc1	102%
CC1COCCN1c1cc(-c2ccnn2C)c2ccnc(-c3ccn[nH]3)c2n1 (centres undefined) + NC1CC1c1ccc(-c2cccc(O)c2)cc1	81.8%

Same assay, conditions: second compound 1 µM; first compound 3.16 µM; active compounds read low

Structure (SMILES)	viability, T/C
CC(C)c1c(-c2ccccc2)nc2c(C#N)c[nH]n2c1=O + NC1CC1c1ccc(-c2cccc(O)c2)cc1	105%
CC1(C)CCC(CN2CCN(c3ccc(C(=O)NS(=O)(=O)c4ccc(NCC5CCOCC5)c([N+](=O)[O-])c4)c(Oc4cnc5[nH]ccc5c4)c3)CC2)=C(c2ccc(Cl)cc2)C1 + NC1CC1c1ccc(-c2cccc(O)c2)cc1	50.2%

Same assay, conditions: second compound 1 µM; first compound 10 µM; active compounds read low

Structure (SMILES)	viability, T/C
CC(C)c1c(-c2ccccc2)nc2c(C#N)c[nH]n2c1=O + NC1CC1c1ccc(-c2cccc(O)c2)cc1	116%
CC1(C)CCC(CN2CCN(c3ccc(C(=O)NS(=O)(=O)c4ccc(NCC5CCOCC5)c([N+](=O)[O-])c4)c(Oc4cnc5[nH]ccc5c4)c3)CC2)=C(c2ccc(Cl)cc2)C1 + NC1CC1c1ccc(-c2cccc(O)c2)cc1	0.7%

Same assay, conditions: second compound 3.16 µM; first compound 0.000316 µM; active compounds read low

Structure (SMILES)	viability, T/C
CC(C)CC(NC(=O)CNC(=O)c1cc(Cl)ccc1Cl)B1OC(=O)CC(CC(=O)O)(C(=O)O)O1 (centres undefined) + NC1CCC(NC2CC2c2ccccc2)CC1	77.2%
CC[C@@]1(O)C(=O)OCc2c1cc1n(c2=O)Cc2cc3c(CN(C)C)c(O)ccc3nc2-1 + NC1CC1c1ccc(-c2cccc(O)c2)cc1	89.3%

Same assay, conditions: second compound 3.16 µM; first compound 0.001 µM; active compounds read low

Structure (SMILES)	viability, T/C
CC(C)CC(NC(=O)CNC(=O)c1cc(Cl)ccc1Cl)B1OC(=O)CC(CC(=O)O)(C(=O)O)O1 (centres undefined) + NC1CCC(NC2CC2c2ccccc2)CC1	70.2%
CC[C@@]1(O)C(=O)OCc2c1cc1n(c2=O)Cc2cc3c(CN(C)C)c(O)ccc3nc2-1 + NC1CC1c1ccc(-c2cccc(O)c2)cc1	96.3%

Same assay, conditions: second compound 3.16 µM; first compound 0.00316 µM; active compounds read low

Structure (SMILES)	viability, T/C
CC(C)CC(NC(=O)CNC(=O)c1cc(Cl)ccc1Cl)B1OC(=O)CC(CC(=O)O)(C(=O)O)O1 (centres undefined) + NC1CCC(NC2CC2c2ccccc2)CC1	63.4%
CC1COCCN1c1cc(-c2ccnn2C)c2ccnc(-c3ccn[nH]3)c2n1 (centres undefined) + NC1CC1c1ccc(-c2cccc(O)c2)cc1	60.5%
CC[C@@]1(O)C(=O)OCc2c1cc1n(c2=O)Cc2cc3c(CN(C)C)c(O)ccc3nc2-1 + NC1CC1c1ccc(-c2cccc(O)c2)cc1	63.6%

Same assay, conditions: second compound 3.16 µM; first compound 0.01 µM; active compounds read low

Structure (SMILES)	viability, T/C
CC(C)CC(NC(=O)CNC(=O)c1cc(Cl)ccc1Cl)B1OC(=O)CC(CC(=O)O)(C(=O)O)O1 (centres undefined) + NC1CCC(NC2CC2c2ccccc2)CC1	6.41%
CC1COCCN1c1cc(-c2ccnn2C)c2ccnc(-c3ccn[nH]3)c2n1 (centres undefined) + NC1CC1c1ccc(-c2cccc(O)c2)cc1	50.9%
CC[C@@]1(O)C(=O)OCc2c1cc1n(c2=O)Cc2cc3c(CN(C)C)c(O)ccc3nc2-1 + NC1CC1c1ccc(-c2cccc(O)c2)cc1	68.3%

Same assay, conditions: second compound 3.16 µM; first compound 0.0316 µM; active compounds read low

Structure (SMILES)	viability, T/C
CC(C)c1c(-c2ccccc2)nc2c(C#N)c[nH]n2c1=O + NC1CC1c1ccc(-c2cccc(O)c2)cc1	87.6%
CC1(C)CCC(CN2CCN(c3ccc(C(=O)NS(=O)(=O)c4ccc(NCC5CCOCC5)c([N+](=O)[O-])c4)c(Oc4cnc5[nH]ccc5c4)c3)CC2)=C(c2ccc(Cl)cc2)C1 + NC1CC1c1ccc(-c2cccc(O)c2)cc1	100%
CC(C)CC(NC(=O)CNC(=O)c1cc(Cl)ccc1Cl)B1OC(=O)CC(CC(=O)O)(C(=O)O)O1 (centres undefined) + NC1CCC(NC2CC2c2ccccc2)CC1	0.1%
CC1COCCN1c1cc(-c2ccnn2C)c2ccnc(-c3ccn[nH]3)c2n1 (centres undefined) + NC1CC1c1ccc(-c2cccc(O)c2)cc1	39.5%
CC[C@@]1(O)C(=O)OCc2c1cc1n(c2=O)Cc2cc3c(CN(C)C)c(O)ccc3nc2-1 + NC1CC1c1ccc(-c2cccc(O)c2)cc1	70%

Same assay, conditions: second compound 3.16 µM; first compound 0.1 µM; active compounds read low

Structure (SMILES)	viability, T/C
CC(C)c1c(-c2ccccc2)nc2c(C#N)c[nH]n2c1=O + NC1CC1c1ccc(-c2cccc(O)c2)cc1	93.5%
